The record followed here is US4659696A, “Pharmaceutical composition and its nasal or vaginal use” (Takeda Chemical Industries, Ltd., priority 1982, dated 1987).

Where two headings read alike, the source gives them in different places.

For data set [1] the following is noted: rats, rectal Witepsol W-35 suppository, sodium cefazolin 50 mg/kg.
Method: Thereafter, blood sampling from the tail vein is performed at timed intervals and the plasma cefazolin level is determined by bioassay using Bacillus subtilis PCI-219 as the test organism.
The conditions of data set [2]: rats, rectal suspension, 5-FU 50 mg/kg.
Method: An amount (corresponding to 50 mg/kg) of 5-FU and 5 mg of α-cyclodextrin are finely milled in a mortar and added to 0.1 ml of physiological saline. The mixture is subjected to ultrasonic treatment (27 KHz, 5 minutes). The thus-obtained suspension is rectally administered to rats in the manner in Experimental Example 7. Blood samples are taken from the tail vein at timed intervals and 5-FU plasma levels are determined by bioassay using Micrococcus luteus ATCC-10240 as the test organism. In the control group, the procedure is followed with α-cyclodextrin-free 5-FU.
The conditions of data set [3]: rat, in vivo. The protocol: Male SD strain rats (body weights 250 g, approx.) fasted for 16 hours are used in groups of at least 3 animals. Each animal is anesthetized with pentobarbital and administered nasal medication in accordance with the method described in International Journal of Pharmaceutics 7, 317 (1981). Then, 0.1 ml/kg of insulin solution is directly administered into the nasal cavity with a micropipette via the nostril.
In 0.1 ml of physiological saline are dissolved 100 μg of TAP-144 and 5 mg of α-cyclodextrin, and in the manner of Experimental Example 1, the 0.1 ml/kg equivalent of the solution is administered into the nasal cavity (the dose of TAP-144: […]).

For data set [4] the following is noted: rat, in vivo. This is another data set of the same source.
Method: (§1) SD-strain mature female rats (weighing about 270 g, 14 to 18 weeks old, in groups of 4 to 5 individuals) at diestrus as selected by the vaginal smear test covering a period of at least one week are anesthetized with pentobarbital and phenobarbital at 8-11 a.m., and a solution prepared by dissolving 500 μg of TAP-144 and 20 mg (2%), 50 mg (5%) or 100 mg (10%) of α-cyclodextrin in physiological saline in an amount to make 1 ml is administered into the vagina with about 12 mg of cotton soaked therewith at the dose level of 0.2 ml/kg (corresponding 100 μg/kg of TAP-144). Blood samples are taken from the tail vein at timed intervals and assayed for the serum TAP-144 level by radioimmunoassay [refer to Endocrinologia Japonica, vol.
A short description of data set [5]: in vivo. The conditions noted are these: female, SD, rat, 100 ug/kg, Concentration of TAP-144 in serum.
Method: as §1
Data set [6] deals with prothrombin time (blood coagulation time). The data set can be described thus: Prothrombin time (blood coagulation time) after rectal heparin sodium in rats. The conditions noted are these: heparin sodium 600 U. In kind it is in vivo, rat. The protocol: A 0.27 ml portion of each blood sample is placed in a polyethylene microtube containing 0.03 ml of 3.8 w/v percent of sodium citrate, the tube contents are stirred well and then centrifuged, and the plasma portion is subjected to prothrombin time (blood coagulation time) determination using a thromboplastin reagent (Simplastin, Ono Pharmaceutical Co., Japan). In the control group, the same procedure is followed with α-cyclodextrin-free heparin sodium. […] An increased absorption of heparin is thus shown.

Data set [7] is described as follows: Saturation solubility of cyclodextrin. In kind it is physicochemical. The conditions noted are these: isotonic buffer solution (pH 7.4).

Consider `Cc1nnc(SCC2=C(C(=O)O)N3C(=O)[C@@H](NC(=O)Cn4cnnn4)[C@H]3SC2)s1` [sodium cefazolin], for which the Plasma level came out at 3840 ng/mL in data set [1] (10% (w/w) α-cyclodextrin, 0.5 hr.); 5320 ng/mL in data set [1] (10% (w/w) α-cyclodextrin, 1 hr.); 7370 ng/mL in data set [1] (10% (w/w) α-cyclodextrin, 2 hr.); 6260 ng/mL in data set [1] (10% (w/w) α-cyclodextrin, 3 hr.); 5320 ng/mL in data set [1] (10% (w/w) α-cyclodextrin, 4 hr.); 1760 ng/mL in data set [1] (no cyclodextrin, 0.5 hr.). Also, the Plasma level in data set [1] (no cyclodextrin, 1 hr.) was determined as 2210 ng/mL; in data set [1] (no cyclodextrin, 2 hr.), 3000 ng/mL; in data set [1] (no cyclodextrin, 3 hr.), 3490 ng/mL; in data set [1] (no cyclodextrin, 4 hr.), 2540 ng/mL.

`O=c1[nH]cc(F)c(=O)[nH]1` [5-FU, 5-fluorouracil]: the “AUC (0-4 hr.)” value in data set [2] (5% (w/v) α-cyclodextrin) is 4.0; in data set [2] (no cyclodextrin), 1.1. Further, the Plasma level in data set [2] (5% (w/v) α-cyclodextrin, 0.5 hr.) was 1370 ng/mL; in data set [2] (5% (w/v) α-cyclodextrin, 1 hr.) it was 1720 ng/mL; in data set [2] (5% (w/v) α-cyclodextrin, 2 hr.), 1050 ng/mL; in data set [2] (5% (w/v) α-cyclodextrin, 4 hr.) it was 490 ng/mL; in data set [2] (no cyclodextrin, 0.5 hr.), 970 ng/mL; in data set [2] (no cyclodextrin, 1 hr.), 430 ng/mL. The Plasma level in data set [2] (no cyclodextrin, 2 hr.) came out at 130 ng/mL; in data set [2] (no cyclodextrin, 4 hr.) it was 60 ng/mL.

Regarding `CCNC(=O)[C@@H]1CCCN1C(=O)[C@H](CCCNC(=N)N)NC(=O)[C@H](CC(C)C)NC(=O)[C@@H](CC(C)C)NC(=O)[C@H](Cc1ccc(O)cc1)NC(=O)[C@H](CO)NC(=O)[C@H](Cc1c[nH]c2ccccc12)NC(=O)[C@H](Cc1c[nH]cn1)NC(=O)[C@@H]1CCC(=O)N1` [TAP-144], in data set [3], the increase in bioavailability entry is “about 3.5 times”. For the same compound, the “Concentration of TAP-144 in serum” value in data set [4] (female, SD, 100 ug/kg, 0.5 h) turned out to be 45.3 ng/mL. Moreover, the “promotion of vaginal absorption” value in data set [4] was “about 6 times”. Besides, in data set [5], the level at 0.5 h amounted to 28.1 ng/mL, the level at 2 h turned out to be 39.2 ng/mL and the level at 4 h was 32.1 ng/mL.

Regarding heparin sodium, the Blood coagulation time in data set [6] (5% (w/v) α-cyclodextrin, 0.5 hr., before administration 14.3) was found to be 17.2 s; in data set [6] (5% (w/v) α-cyclodextrin, 0.75 hr., before administration 14.3), 18.4 s; in data set [6] (5% (w/v) α-cyclodextrin, 1 hr., before administration 14.3) it was 19.7 s; in data set [6] (5% (w/v) α-cyclodextrin, 1.5 hr., before administration 14.3), 18.9 s; in data set [6] (5% (w/v) α-cyclodextrin, 2 hr., before administration 14.3), 19.4 s; in data set [6] (no cyclodextrin, 0.5 hr., before administration 13.6) it was 14.3 s. For the same compound, the Blood coagulation time in data set [6] (no cyclodextrin, 0.75 hr., before administration 13.6) is 13.7 s; in data set [6] (no cyclodextrin, 1 hr., before administration 13.6), 14.7 s; in data set [6] (no cyclodextrin, 1.5 hr., before administration 13.6) it was 15.3 s; in data set [6] (no cyclodextrin, 2 hr., before administration 13.6), 14.7 s.

Take `OC[C@H]1O[C@@H]2O[C@H]3[C@H](O)[C@@H](O)[C@@H](O[C@H]4[C@H](O)[C@@H](O)[C@@H](O[C@H]5[C@H](O)[C@@H](O)[C@@H](O[C@H]6[C@H](O)[C@@H](O)[C@@H](O[C@H]7[C@H](O)[C@@H](O)[C@@H](O[C@H]8[C@H](O)[C@@H](O)[C@@H](O[C@H]1[C@H](O)[C@H]2O)O[C@@H]8CO)O[C@@H]7CO)O[C@@H]6CO)O[C@@H]5CO)O[C@@H]4CO)O[C@@H]3CO` [β-cyclodextrin]: the saturation solubility entry in data set [7] is listed as “about 1.8%”.
